Measurements: ChEMBL document CHEMBL1152847, “Molecular modeling and inhibition of phospholipase A2 by polyhydroxy phenolic compounds” (Eur J Med Chem, 2009)
Activity calls are given as the source filed them. The rule behind the calls is not given here.

Experiments:
Crotalus adamanteus [1] = test: Activity of Crotalus adamanteus venom PLA2 assessed as 1-hexadecanoyl-2-(1-pyrenedecanoyl)-sn-glycero-3-phosphoglycerol hydrolysis at 0.30 uM
[2] = Inhibition of Crotalus adamanteus venom PLA2 assessed as effect on 1-hexadecanoyl-2-(1-pyrenedecanoyl)-sn-glycero-3-phosphoglycerol hydrolysis at 0.15 uM
Crotalus adamanteus [3] = test: Activity of Crotalus adamanteus venom PLA2 assessed as 1-hexadecanoyl-2-(1-pyrenedecanoyl)-sn-glycero-3-phosphoglycerol hydrolysis at 0.15 uM
[4] = Inhibition of Crotalus adamanteus venom PLA2 assessed as effect on 1-hexadecanoyl-2-(1-pyrenedecanoyl)-sn-glycero-3-phosphoglycerol hydrolysis at 0.30 uM
Crotalus adamanteus [5] = test: Inhibition of Crotalus adamanteus venom PLA2-induced edema in Swiss mouse at 50 ug, id; type: functional, organism-based

Row | SMILES | Km (Crotalus adamanteus [1]) | Vmax (Crotalus adamanteus [1]) | Ki [2] | Km (Crotalus adamanteus [3]) | Vmax (Crotalus adamanteus [3]) | Ki [4] | Activity (Crotalus adamanteus [5])
1 | CC(=O)c1ccc(O)cc1O | 7.57 mM | 18.2 nmol/min | 33.3 nM | 4.03 mM | 18.1 nmol/min | 32.1 nM | 
2 | CC(=O)c1c(O)cccc1O | 7.78 mM | 18 nmol/min | 30.1 nM | 4.25 mM | 18.2 nmol/min | 31.2 nM | 
3 | CC(=O)c1c(O)cc(O)cc1O [2,4,6-TRIHYDROXYACETOPHENONE] | 28.2 mM | 18.3 nmol/min | 8.9 nM | 15.1 mM | 18 nmol/min | 8.74 nM | Active
4 | Oc1cc(O)cc(O)c1 [PHLOROGLUCINOL] | 23.2 mM | 18 nmol/min | 8.77 nM | 12.1 mM | 18.1 nmol/min | 8.86 nM | Active
5 | Oc1cccc(O)c1 [RESORCINOL] | 24.8 mM | 18 nmol/min | 8.83 nM | 12.6 mM | 18.1 nmol/min | 8.72 nM | Active
